Legend:
Format in all cases: cell-based, mouse
TCR15 = assay: I-Ag7 SABR-II library screen, enrichment score; settings: for Enrichment score: TCR15, TCR_Mean minus PREDICTED_TCR (from LIB_Mean, SLOPE 0.918454, INTERCEPT 2.00113e-5), PZ37
From the text: (§1) We then asked whether SABR-IIs could be used to present a library of epitopes for CD4^+ T cell antigen discovery. To that end, we constructed a SABR-II library to present epitopes derived from pancreatic islets in I-Ag7 by curating a list of 4,075 published epitopes from the Immune Epitope Database (iedb.org)[50] and a study by Wan et al.[51] (Supplementary Table 1). Of note, this defined library consisted of unmodified epitopes from endogenous proteins, synthetic mimotopes, deamidated epitopes and hybrid insulin peptides (HIPs) that arise from post-translational fusion and are not genetically encoded in vivo[52],[53]. The epitope library was inserted into the I-Ag7 SABR-II backbone through pooled oligonucleotide synthesis, amplification and ligation-free cloning (Extended Data Fig. 3a). The I-Ag7 SABR-II-library was then expressed in NFAT–GFP Jurkat cells. We confirmed that after sequencing, the library accounted for a mean of 708 reads per epitope (Extended Data Fig. 3b). As a proof of concept, we performed co-incubation assays with Jurkat cells expressing the BDC2.5 TCR and sorted the top 1–2% of GFP^+CD69^+ cells at a rate of ~20 min per replicate with three replicates per TCR. We extracted the genomic DNA from sorted cells, amplified the SABR portion of the integrated proviruses and subjected the amplicons to Illumina sequencing (Extended Data Fig. 3c,d). The 1–2% sort gate represents >50-fold enrichment of cognate epitopes with minimal loss of signal (Extended Data Fig. 3e–h). Sequence reads were aligned to the I-Ag7 SABR-II backbone and the corresponding epitopes were scored based on their read counts. For each TCR under investigation, an enrichment score (ES) was determined for all the epitopes in a library. In each experiment, three replicates of a sort with TCR-expressing Jurkat cells were performed and reads were counted post-sequencing. In addition, three replicates of the unsorted library were also sequenced. A linear regression model was built using the unsorted library counts and used to determine the expected abundance of each epitope in the library. The ES was calculated based on the difference between the measured and the expected abundance of each epitope on a per-TCR basis (Fig. 1e). Based on ES values, two quantitative thresholds were used to determine putative cognate epitopes of a given TCR. A high-confidence zone containing clear outliers with a high ES and a low-confidence zone containing weak outliers with a moderately high ES were determined (Fig. 1e). This two-tiered strategy was used to call putative hits from screens. All the top-scoring epitopes for the BDC2.5 TCR were known BDC2.5 ligands containing the WXRM(D/E) motif (Fig. 1f,g, enriched ligands in red), a well-characterized trait of the BDC2.5 TCR[43],[54]–[56]. Across several independent experiments there was limited variation in ES values for the same TCRs and several epitopes fell into high- or low-confidence zones consistently (Extended Data Fig. 4a). Using a different TCR that was isolated from NOD mice, 4-8Ins[57], which recognized the InsB9:23 epitope ([…]), we observed a similar pattern of ES for cognate epitopes (Extended Data Fig. 4b).
(§2) We performed systematic screening of the cloned TCRs against the I-Ag7 SABR-II library. Several TCRs along with a positive control (such as BDC2.5 or 4-8Ins) were screened individually against the library for each sort (Extended Data Fig. 6a and Supplementary Table 4). High- and low-confidence ES zones for each screened TCR were defined by the ES values of the control TCR’s cognate epitopes. For all putative cognate epitopes, single SABR-IIs were constructed, expressed in NFAT–GFP Jurkat cells and used for co-incubation with the corresponding TCRs. Co-incubation assays that yielded a GFP signal higher than that obtained in assays with no TCR were determined to be positive and the epitopes deemed true cognate ligands (Extended Data Fig. 6b,c). […]

TCR30 = assay: I-Ag7 SABR-II library screen, enrichment score; settings: for Enrichment score: TCR_Mean minus PREDICTED_TCR (slope 0.934363, intercept 1.61073e-5 on LIB_Mean), TCR 30, run PZ98
From the text: as §1, §2

TCR24 = assay: I-Ag7 SABR-II library screen, enrichment score; settings: for Enrichment score: TCR_Mean minus PREDICTED_TCR (slope 0.96363, intercept 8.9252e-6 on LIB_Mean), TCR 24, run PZ98
From the text: as §1, §2

TCR37 = assay: I-Ag7 SABR-II library screen, enrichment score; settings: for Enrichment score: TCR_Mean minus PREDICTED_TCR (slope 0.904637, intercept 2.34021e-5 on LIB_Mean), TCR 37, run PZ57
From the text: as §1, §2

TCR4 = assay: I-Ag7 SABR-II library screen, enrichment score; settings: for Enrichment score: sheet TCR4-PZ44, ES = TCRObserved - TCRPredicted, TCRPredicted = LIBObserved x SLOPE + INTERCEPT, SLOPE 0.903208, INTERCEPT 2.37527e-5
From the text: as §1, §2

TCR11 = assay: I-Ag7 SABR-II library screen, enrichment score; settings: for Enrichment score: TCR11, TCR_Mean minus PREDICTED_TCR (from LIB_Mean, SLOPE 0.869084, INTERCEPT 3.21267e-5), PZ51
From the text: as §1, §2

[1] = system: pooled TCR1, TCR2, TCR3, TCR5, TCR7, TCR24, TCR37 with one TCR left out; assay: Multiplexed TCR/library dropout screen, individual ES of each leave-one-out pool; settings: for INDIVIDUAL ES LOO_TCR1: leave-one-out pool without TCR1; for INDIVIDUAL ES LOO_TCR2: leave-one-out pool without TCR2; for INDIVIDUAL ES LOO_TCR3: leave-one-out pool without TCR3; for INDIVIDUAL ES LOO_TCR5: leave-one-out pool without TCR5; for INDIVIDUAL ES LOO_TCR7: leave-one-out pool without TCR7; for INDIVIDUAL ES LOO_TCR24: leave-one-out pool without TCR24; for INDIVIDUAL ES LOO_TCR37: leave-one-out pool without TCR37
From the text: Supplement 41592_2024_2255_MOESM7_ESM.xlsx, sheet "leave-one-out analysis" | column: LOO_TCR1; LOO_TCR2; LOO_TCR3; LOO_TCR5; LOO_TCR7; LOO_TCR24; LOO_TCR37

AAVEEGIVAGGGVTLL
Enrichment score (TCR15): -0.000165 | Enrichment score (TCR30): -2.605e-6 | Enrichment score (TCR24): 0.0001615 | Enrichment score (TCR37): -4.879e-5 | Enrichment score (TCR4): 3.881e-5 | Enrichment score (TCR11): 9.192e-5 | INDIVIDUAL ES LOO_TCR1 [1]: -4.978e-5 | INDIVIDUAL ES LOO_TCR2 [1]: -3.795e-6 | INDIVIDUAL ES LOO_TCR3 [1]: 1.5842e-5 | INDIVIDUAL ES LOO_TCR5 [1]: 3.701e-5 | INDIVIDUAL ES LOO_TCR7 [1]: 1.545e-5 | INDIVIDUAL ES LOO_TCR24 [1]: -1.25e-6 | INDIVIDUAL ES LOO_TCR37 [1]: -5.451e-6

AEKVRNLPAGHGLNAQ
Enrichment score (TCR15): 0.000168 | Enrichment score (TCR30): 0.0001445 | Enrichment score (TCR24): 0.0001713 | Enrichment score (TCR37): 0.0002899 | Enrichment score (TCR4): -5.549e-7 | Enrichment score (TCR11): 0.0002492 | INDIVIDUAL ES LOO_TCR1 [1]: 5.319e-5 | INDIVIDUAL ES LOO_TCR2 [1]: -0.0001199 | INDIVIDUAL ES LOO_TCR3 [1]: -3.193e-5 | INDIVIDUAL ES LOO_TCR5 [1]: 1.335e-5 | INDIVIDUAL ES LOO_TCR7 [1]: -1.1271e-5 | INDIVIDUAL ES LOO_TCR24 [1]: -8.015e-5 | INDIVIDUAL ES LOO_TCR37 [1]: -1.6913e-5

AGGVAVIKAGAATEV
Enrichment score (TCR15): 2.956e-5 | Enrichment score (TCR30): -2.42e-5 | Enrichment score (TCR24): -1.094e-5 | Enrichment score (TCR37): -0.0001031 | Enrichment score (TCR4): 2.046e-5 | Enrichment score (TCR11): -2.692e-5 | INDIVIDUAL ES LOO_TCR1 [1]: 2.749e-5 | INDIVIDUAL ES LOO_TCR2 [1]: 9.403e-5 | INDIVIDUAL ES LOO_TCR3 [1]: -4.985e-5 | INDIVIDUAL ES LOO_TCR5 [1]: 2.576e-5 | INDIVIDUAL ES LOO_TCR7 [1]: 3.872e-6 | INDIVIDUAL ES LOO_TCR24 [1]: -1.653e-5 | INDIVIDUAL ES LOO_TCR37 [1]: 5.688e-5

AKAAVEEGIVAGGGV
Enrichment score (TCR15): 1.733e-5 | Enrichment score (TCR30): 8.616e-5 | Enrichment score (TCR24): 2.968e-5 | Enrichment score (TCR37): -6.503e-5 | Enrichment score (TCR4): -0.0001441 | Enrichment score (TCR11): 0.0001401 | INDIVIDUAL ES LOO_TCR1 [1]: -3.982e-5 | INDIVIDUAL ES LOO_TCR2 [1]: -3.046e-5 | INDIVIDUAL ES LOO_TCR3 [1]: -2.304e-5 | INDIVIDUAL ES LOO_TCR5 [1]: -3.485e-6 | INDIVIDUAL ES LOO_TCR7 [1]: 9.492e-5 | INDIVIDUAL ES LOO_TCR24 [1]: 4.6789e-5 | INDIVIDUAL ES LOO_TCR37 [1]: 6.867e-6

ALVREGLRNVAAGANP
Enrichment score (TCR15): -2.061e-5 | Enrichment score (TCR30): -1.611e-5 | Enrichment score (TCR24): -8.9252e-6 | Enrichment score (TCR37): -2.34e-5 | Enrichment score (TCR4): -2.375e-5 | Enrichment score (TCR11): -3.213e-5 | INDIVIDUAL ES LOO_TCR1 [1]: -1.224e-5 | INDIVIDUAL ES LOO_TCR2 [1]: -1.224e-5 | INDIVIDUAL ES LOO_TCR3 [1]: -1.224e-5 | INDIVIDUAL ES LOO_TCR5 [1]: -1.224e-5 | INDIVIDUAL ES LOO_TCR7 [1]: -1.224e-5 | INDIVIDUAL ES LOO_TCR24 [1]: -1.224e-5 | INDIVIDUAL ES LOO_TCR37 [1]: -1.224e-5

LQTLALNAARDP
recognition by TCR (screen hit, validated by single SABR-II co-incubation) (TCR15; high-confidence zone): recognized | recognition by TCR (screen hit, validated by single SABR-II co-incubation) (TCR4; high-confidence zone): recognized

SHLVEALYLVCGERG
recognition by TCR (screen hit, validated by single SABR-II co-incubation) (TCR30; low-confidence hit): confirmation of reactivity | recognition by TCR (screen hit, validated by single SABR-II co-incubation) (TCR24; high-confidence zone): recognized | recognition by TCR (screen hit, validated by single SABR-II co-incubation) (TCR37; high-confidence zone): recognized | recognition by TCR (screen hit, validated by single SABR-II co-incubation) (TCR11; low-confidence hit): confirmation of reactivity

— publication PMC11093748, “De novo identification of CD4^+ T cell epitopes” (Nature Methods, 2024)
